Where two headings read alike, the source gives them in different places.
What was measured:
[1] = tested on: Eleven human cancer cell lines; assay: MTT colorimetric assay, across the eleven human cancer cell lines; format: cell-based; conditions: mean ± SEM over the 11 human cancer cell lines, MTT, 72 hours; read-out: In Vitro IC50 Growth Inhibitory Values, m ± SEM
Description: (§1) The amount of formazan obtained at the end of the experiment, measured by means of a spectrophotometer, is directly proportional to the number of living cells. Optical density determination thus enabled a quantitative measurement of the effect of the investigated compounds as compared to the control condition (untreated cells) and/or to other reference compounds. Eleven human cancer cell lines and one mouse melanoma cell-line (B16F10) described in Table 2 were used in the following MTT tests. These cancer cell lines cover seven histological cancer types including prostate (PC3), glioma (Hs683, T98G, U373, melanoma (VM21, VM28), non-small-cell-lung (A549), breast (MCF-7), colon (LoVo) and oesophageal (OE21, OE33) cancers. […] Each cell line was seeded in its appropriate culture medium. The detailed experimental procedure was the following: after a 24-hour period of incubation at 37° C., the culture medium was replaced by 100 μl of fresh medium in which the tested compound was previously dissolved, at the following molar concentrations: 10^-8 […] and 10^-4 M. Each experiment was performed in sestuplicates (6 times). After 72 hours of incubation at 37° C. with (experimental conditions) or without (control condition) the compound to be tested, the medium was replaced by 100 μl MTT dissolved in RPMI (1640 without phenol red) at a concentration of 0.5 or 1 mg/ml. The micro-wells were subsequently incubated during 3 hours and a half at 37° C. and centrifuged at 1300 rpm during 10 minutes. MTT was removed and formazan crystals formed were dissolved in 100 μl DMSO. The micro-wells were shaken for 5 minutes and read on a spectrophotometer at wavelengths of 570 nm (maximal formazan absorbance). For each experimental condition, the mean optical density was calculated, allowing the determination of the percentage of remaining living cells in comparison to the control. […] The origin of all the cell lines we used, along with their biological characteristics, and the validation procedures of the MTT colorimetric assay as employed here are fully detailed in Van Quaquebeke et al., 2005, J Med Chem 48:849-856; […]

[2] = tested on: VM48 melanoma cells; assay: MTT colorimetric assay, overall cell growth, VM48; format: cell-based, human; conditions: MTT, 72 hours of incubation, read-out: In Vitro IC50 Growth Inhibitory Values, VM48
[3] = tested on: A549 non-small-cell-lung cancer cell line; assay: Cellular imaging (quantitative videomicroscopy), global growth ratio, A549; format: cell-based; conditions: Homo sapiens, 72 h, read-out: Global Grow Ratio Treated/Ct (GGR T/Ct) determined by Video Quantitative microscopy, A549
Description: (§2) As the MTT test is based on the mitochondria functions, we also investigated the effects of the di- and tri-vanilloyl derivatives according to the invention on cell proliferation, migration and morphology by means of a cellular imaging approach (Debeir et al., Cytometry 60:29-40, 2004; Debeir et al., IEEE Trans Med Imaging 24:697-711, 2005) either in the human U373-MG glioma cell line, which is apoptosis-resistant but autophagy-sensitive (Lefranc F et al., Neurosurgery 2008) and in the human A549 non-small-cell-lung cancer cell line, which is apoptosis-resistant and autophagy-resistant (Mijatovic T et al., Neoplasia 2006, May; 8(5):402-12).
(§3) Investigations have also been performed in human normal fibroblasts (WS1 and WI38—see Tables 4 and 5). Cellular imaging relied on the use of computer-assisted phase-contrast microscopy making possible to film the behaviour of living cells in culture dishes for several days.
(§4) Cells were seeded in a 25-cm^2 flask at a low density, treated or not with the vanilloyl-esters invention (at a concentration of 50 μM) and filmed thereafter for a period of 72 h. The experiment was conducted in quadruplicates (in duplicates for DLT-95 compounds).
(§5) The behaviour of the cells, in terms of morphology, growth and death were thus investigated. The effect on the overall growth was measured by counting the number of cells on the first (0 h) and the last image (72 h) of each film. The global growth ratio (GGR) was then deduced by dividing the number of cells on the last image by the number of cells on the first image. The ratio GGRtreated cells/GGRcontrol cells, was further calculated thereby obtaining a value that describes the effect of compounds of the present invention on the overall cell growth. The methodology is fully described and validated in Debeir et al., 2008, Exp Cell Res 314:2985-2998 and Mathieu et al., 2009, J Cell Mol Med, Feb. 20, 2009.
(§6) Illustrative pictures (time=0 h and 72 h) of glioblastoma and normal fibroblast cell line left untreated or treated with poly-vanillic compounds according to the invention (50 μM) are provided in FIG. 1 (U373 glioblastoma) and FIG. 2 (normal fibroblasts). The GGR parameter analyses confirmed the marked impairment of cell growth in both cancer cell lines of the poly-vanillic compounds according to the invention (Table 5).

[4] = tested on: VM21 melanoma cells; assay: MTT colorimetric assay, overall cell growth, VM21; format: cell-based, human; conditions: MTT, 72 hours of incubation, read-out: In Vitro IC50 Growth Inhibitory Values, VM21
Description: as §1

[5] = tested on: U373-MG glioma cell line; assay: Cellular imaging (quantitative videomicroscopy), global growth ratio, U373; format: cell-based; conditions: Homo sapiens, 50 μM, 72 h, read-out: Global Grow Ratio Treated/Ct (GGR T/Ct) determined by Video Quantitative microscopy, U373
Description: as §2, §3, §4, §5, §6

[6] = tested on: PC-3 prostate cancer cells; assay: MTT colorimetric assay, overall cell growth, PC-3; format: cell-based, human; conditions: 72 hours of incubation, read-out: In Vitro IC50 Growth Inhibitory Values, PC-3
Description: as §1

[7] = tested on: T98G glioma cells; assay: MTT colorimetric assay, overall cell growth, T98G; format: cell-based, human; conditions: 72 hours of incubation, read-out: In Vitro IC50 Growth Inhibitory Values, T98G
Description: as §1

[8] = tested on: U373 glioblastoma cells; assay: MTT colorimetric assay, overall cell growth, U373; format: cell-based, human; conditions: 72 hours of incubation, read-out: In Vitro IC50 Growth Inhibitory Values, U373
Description: as §1

[9] = tested on: Hs683 glioma cells; assay: MTT colorimetric assay, overall cell growth, Hs683; format: cell-based, human; conditions: read-out: In Vitro IC50 Growth Inhibitory Values, Hs683
Description: as §1

[10] = tested on: MCF-7 breast cancer cells; assay: MTT colorimetric assay, overall cell growth, MCF-7; format: cell-based, human; conditions: read-out: In Vitro IC50 Growth Inhibitory Values, MCF-7
Description: as §1

[11] = tested on: B16F10 melanoma cell-line; assay: MTT colorimetric assay, overall cell growth, B16F10; format: cell-based, mouse; conditions: read-out: In Vitro IC50 Growth Inhibitory Values, B16F10
Description: as §1

[12] = tested on: OE21 oesophageal cancer cells; assay: MTT colorimetric assay, overall cell growth, OE21; format: cell-based, human; conditions: read-out: In Vitro IC50 Growth Inhibitory Values, OE21
Description: as §1

[13] = tested on: LoVo colon cancer cells; assay: MTT colorimetric assay, overall cell growth, LoVo; format: cell-based, human; conditions: 72 hours of incubation, read-out: In Vitro IC50 Growth Inhibitory Values, LoVo
Description: as §1

[14] = tested on: A549 non-small-cell-lung cancer cells; assay: MTT colorimetric assay, overall cell growth, A549; format: cell-based, human; conditions: read-out: In Vitro IC50 Growth Inhibitory Values, A549
Description: as §1

[15] = tested on: OE33 oesophageal cancer cells; assay: MTT colorimetric assay, overall cell growth, OE33; format: cell-based, human; conditions: read-out: In Vitro IC50 Growth Inhibitory Values, OE33
Description: as §1

[16] = Homo sapiens, Hs 683, 72 hours of incubation
[17] = Homo sapiens, MCF7, 72 hours of incubation
[18] = Mus musculus, B16-F10, 72 hours of incubation
[19] = Homo sapiens, OE21, 72 hours of incubation
[20] = Homo sapiens, A549, 72 hours of incubation
[21] = Homo sapiens, OE33, 72 hours of incubation

| Structure (SMILES) | IC50 [1] [µM] | IC50 ([2]; Homo sapiens) [µM] | IC50 ([4]; Homo sapiens) [µM] | IC50 ([6]; Homo sapiens) [µM] | IC50 ([7]; Homo sapiens, T98G) [µM] | IC50 ([8]; Homo sapiens, U373 MG) [µM] | IC50 [9, 16] [µM] | IC50 [10, 17] [µM] | IC50 [11, 18] [µM] | IC50 [12, 19] [µM] | IC50 ([13]; Homo sapiens, LoVo) [µM] | IC50 [14, 20] [µM] | IC50 [15, 21] [µM] | activity at 50 µM [3] [%] | activity at 50 µM [5] [%] | further results |
| --- | --- | --- | --- | --- | --- | --- | --- | --- | --- | --- | --- | --- | --- | --- | --- | --- |
| COc1cc(C(=O)O[C@H]2CCCC[C@H]2OC(=O)c2ccc(O)c(OC)c2)ccc1O [DLT9, cis-cyclohexane-1,2-diyl bis-(4-hydroxy-3-methoxybenzoate)] | 48 ± 3 | 57 | 44 | 35 | 76 | 43 | 49 | – | – | – | – | – | – | 20 | 20 | – |
| COc1cc(C(=O)OCCCCCCCCOC(=O)c2ccc(O)c(OC)c2)ccc1O [DLT13, Octane-1,8-diyl bis-(4-hydroxy-3-methoxybenzoate)] | 42 | 26 | 28 | – | – | – | – | – | – | – | – | – | – | 20 | 20 | – |
| COc1cc(C(=O)O[C@H]2CCC[C@H]2OC(=O)c2ccc(O)c(OC)c2)ccc1O [DLT14, cis-cyclopentane-1,2-diyl bis-(4-hydroxy-3-methoxybenzoate)] | 29 | 22 | 33 | 36 | 32 | 36 | 27 | 27 | 9 | 28 | 24 | 24 | 28 | – | – | – |
| COc1cc(C(=O)NCCCNC(=O)c2ccc(O)c(OC)c2)ccc1O [DLT36, N,N′-Propane-1,3-diyl bis-(4-hydroxy-3-methoxybenzamide)] | 35 ± 2 | – | – | – | – | – | – | – | – | – | – | – | – | – | – | IC50 [2]: 43 µM; IC50 ([10]; 72 hours of incubation): 25 µM; IC50 ([11]; 72 hours of incubation): 38 µM; IC50 [7]: 40 µM; IC50 ([12]; 72 hours of incubation): 28 µM; IC50 [6]: 40 µM; IC50 [8]: 38 µM; IC50 ([9]; 72 hours of incubation): 31 µM; IC50 [13]: 32 µM; IC50 [4]: 49 µM; IC50 ([14]; 72 hours of incubation): 26 µM; IC50 ([15]; 72 hours of incubation): 36 µM |
| COc1cc(C(=O)NCCCCCNC(=O)c2ccc(O)c(OC)c2)ccc1O [DLT37, N,N′-Pentane-1,5-diyl bis-(4-hydroxy-3-methoxybenzamide)] | > 100 | – | – | – | – | – | – | – | – | – | – | – | – | – | – | IC50 [2]: > 100 µM; IC50 ([10]; 72 hours of incubation): 71 µM; IC50 ([11]; 72 hours of incubation): > 100 µM; IC50 [7]: 55 µM; IC50 ([12]; 72 hours of incubation): 81 µM; IC50 [6]: > 100 µM; IC50 [8]: 91 µM; IC50 ([9]; 72 hours of incubation): 80 µM; IC50 [13]: 41 µM; IC50 [4]: > 100 µM; IC50 ([14]; 72 hours of incubation): 52 µM; IC50 ([15]; 72 hours of incubation): > 100 µM |

Further lines, with some results ahead:

| IC50 [1] [µM] | IC50 ([2]; Homo sapiens) [µM] | IC50 ([4]; Homo sapiens) [µM] | IC50 ([6]; Homo sapiens) [µM] | IC50 ([7]; Homo sapiens, T98G) [µM] | IC50 ([8]; Homo sapiens, U373 MG) [µM] | IC50 [9, 16] [µM] | IC50 [10, 17] [µM] | IC50 [11, 18] [µM] | IC50 [12, 19] [µM] | IC50 ([13]; Homo sapiens, LoVo) [µM] | IC50 [14, 20] [µM] | IC50 [15, 21] [µM] | Structure (SMILES) | activity at 50 µM [3] [%] | activity at 50 µM [5] [%] | further results |
| --- | --- | --- | --- | --- | --- | --- | --- | --- | --- | --- | --- | --- | --- | --- | --- | --- |
| > 100 | 68 | 72 | – | – | – | – | – | – | – | – | – | – | COc1cc(C(=O)OCCCOC(=O)c2ccc(O)c(OC)c2)ccc1O [DLT2, Propane-1,3-diyl bis-(4-hydroxy-3-methoxybenzoate)] | 110 | 40 | – |
| > 100 | > 100 | > 100 | > 100 | – | – | – | – | – | – | – | – | – | COc1cc(C(=O)OCCCCCOC(=O)c2ccc(O)c(OC)c2)ccc1O [DLT3, Pentane-1,5-diyl bis-(4-hydroxy-3-methoxybenzoate)] | 90 | 70 | – |
| > 100 | 52 | 60 | – | – | – | – | – | – | – | – | – | – | COc1cc(C(=O)OCCCCOC(=O)c2ccc(O)c(OC)c2)ccc1O [DLT10, Butane-1,4-diyl bis-(4-hydroxy-3-methoxybenzoate)] | 20 | 50 | – |
| 57 | 84 | 34 | 81 | 45 | 52 | 53 | 53 | 27 | 31 | 48 | 72 | 73 | O=C(OCCOC(=O)c1ccc(O)c(Cl)c1)c1ccc(O)c(Cl)c1 [DLT23, Ethane-1,2-diyl bis-(4-hydroxy-3-chlorobenzoate)] | – | – | – |
| 30 ± 3 | 35 | 37 | 30 | 28 | 28 | 27 | 55 | 41 | 16 | 29 | 23 | 19 | O=C(OCCOC(=O)c1cc(O)c(O)c(O)c1)c1cc(O)c(O)c(O)c1 [DLT31, Ethane-1,2-diyl bis-(3,4,5-trihydroxybenzoate)] | – | – | – |

From patent US20110280940A1, “Di-Vanilloyl And Tri-Vanilloyl Derivatives For Use In Anti-Cancer Therapy” (priority 2008, published 2011)
